# Experimental data reported in PMC5766630, “Non-estrogenic Xanthohumol Derivatives Mitigate Insulin Resistance and Cognitive Impairment in High-Fat Diet-induced Obese Mice” (Scientific Reports, 2018).
# Assays:
# [1] = target: T1, full-length purified human estrogen receptor ERα (Homo sapiens, UniProt P03372); test: ERα competitive radiometric binding assay; conditions: RBA = IC50[estradiol]/IC50[compound] × 100, estradiol = 100; 2 nM [3H]-estradiol tracer, 18–24 h at 0 °C
# T1 construct: full-length purified human estrogen receptors ERα and ERβ
# T1 sequence (P03372 1-595): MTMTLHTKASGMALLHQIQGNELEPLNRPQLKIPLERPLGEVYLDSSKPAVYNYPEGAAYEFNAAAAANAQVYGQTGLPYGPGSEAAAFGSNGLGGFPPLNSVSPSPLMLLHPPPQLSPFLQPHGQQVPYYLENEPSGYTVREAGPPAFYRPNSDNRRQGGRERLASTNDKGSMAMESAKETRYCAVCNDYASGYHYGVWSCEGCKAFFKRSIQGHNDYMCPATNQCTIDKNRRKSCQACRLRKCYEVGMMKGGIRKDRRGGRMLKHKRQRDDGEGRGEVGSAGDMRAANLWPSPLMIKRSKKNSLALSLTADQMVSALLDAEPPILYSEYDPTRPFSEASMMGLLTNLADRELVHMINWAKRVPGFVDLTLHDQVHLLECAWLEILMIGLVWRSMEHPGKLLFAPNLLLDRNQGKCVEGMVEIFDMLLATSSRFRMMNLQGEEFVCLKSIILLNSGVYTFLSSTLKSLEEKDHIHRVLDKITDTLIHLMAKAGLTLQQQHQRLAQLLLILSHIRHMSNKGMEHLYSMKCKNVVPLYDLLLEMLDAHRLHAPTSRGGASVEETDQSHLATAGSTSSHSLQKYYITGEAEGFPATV
# Protocol: The receptors and ligands were incubated for 18–24 h at 0 °C and then the receptor–ligand complexes separated using hydroxyapatite (BioRad, Hercules, CA, USA).
# [2] = tested on: C2C12 cells; test: Seahorse OCR and ECAR measurements (mitochondrial uncoupling); assay type: cell-based, mouse; conditions: for ECAR after addition of compound: 5 µM final concentration, after oligomycin 1 μM; for Increase of OCR in the presence of oligomycin (uncoupled respiration): 5 µM compound after 1 μM oligomycin, compared to the baseline, five independent experiments
# Protocol: OCR and ECAR measurements were performed with a Seahorse XF 24 Analyzer (Agilent Technologies, Inc., Santa Clara, CA, USA). C2C12 cells were plated in culture medium at a density of 40,000 cells per well in a 24-well plate. The cells were then allowed to adhere for 24 h (37 °C, 5% CO2). Prior to the assay, the cells were washed with freshly prepared running medium consisting of Seahorse XF Assay medium (Agilent Technologies, Inc., Santa Clara, CA, USA), 10 mM glucose and 1 mM sodium pyruvate. The pH of the medium was adjusted to 7.4 with 1 M NaOH. The cells were then equilibrated for one hour at 37 °C without CO2. […] To overcome this problem, the test compounds were first dissolved in ethanol and the resulting solution was diluted 100-fold in treatment medium (9 parts XF media and 1 part 10% FBS media) which was added directly to cells. The treatment medium contained 1% FBS and after a further 10-fold dilution into the media in wells, only 0.1% FBS was present during OCR and ECAR measurements. The final concentrations in the wells were: 1 μM for oligomycin, and 5 μM for XN, DXN or TXN. The concentration of oligomycin and the cell density used were selected based on preliminary experiments. Ethanol was added to the control wells not to exceed a final concentration of 0.1% (vehicle control). OCR and ECAR were measured at 9-min intervals.
# Seahorse data: to show a consistent baseline, OCR values (in pmol/min/mg protein) and ECAR values (in mpH/min/mg protein) for each value were divided, prior to statistical analysis, by the average of the four pre oligomycin treatment values (0, 8, 17, and 25 min) for the corresponding well and are shown as % pre oligomycin values. To account for repeated measures within wells over time, we utilized a repeated-measures-in-time design using ANOVA procedures in PROC MIXED (SAS). Fixed effects in the model were treatment (control, 5 μM XN, 5 μM DXN, and 5 μM TXN for the compound study), time (0, 8, 17, 25, 34, 43, 52, 60, 69, 78, 86, and 95 min), and their interaction. The random effect was the experiment (5 experiments for the compound study). To account for repeated measures within wells over time, a first order homogeneous variance-covariance matrix [AR(1)] was fitted for each well. Using the ESTIMATE statement, a priori contrasts were constructed by comparing the changes in compound treated cells from the last two time points prior to compound treatment (average 52 and 60 min) to the changes in control cells during the same time-period. This was carried out for each compound and dosage for 69, 78, 86, and 95 min separately and for all four time points combined. Results are shown in the text and the graphs as least squares means and their corresponding SEM (standard error of mean). […]
# [3] = target: T2, full-length purified human estrogen receptor ERβ (Homo sapiens, UniProt Q92731); test: ERβ competitive radiometric binding assay; conditions: RBA = IC50[estradiol]/IC50[compound] × 100, estradiol = 100; 2 nM [3H]-estradiol tracer, 18–24 h at 0 °C
# T2 construct: full-length purified human estrogen receptors ERα and ERβ
# T2 sequence (Q92731 whole entry): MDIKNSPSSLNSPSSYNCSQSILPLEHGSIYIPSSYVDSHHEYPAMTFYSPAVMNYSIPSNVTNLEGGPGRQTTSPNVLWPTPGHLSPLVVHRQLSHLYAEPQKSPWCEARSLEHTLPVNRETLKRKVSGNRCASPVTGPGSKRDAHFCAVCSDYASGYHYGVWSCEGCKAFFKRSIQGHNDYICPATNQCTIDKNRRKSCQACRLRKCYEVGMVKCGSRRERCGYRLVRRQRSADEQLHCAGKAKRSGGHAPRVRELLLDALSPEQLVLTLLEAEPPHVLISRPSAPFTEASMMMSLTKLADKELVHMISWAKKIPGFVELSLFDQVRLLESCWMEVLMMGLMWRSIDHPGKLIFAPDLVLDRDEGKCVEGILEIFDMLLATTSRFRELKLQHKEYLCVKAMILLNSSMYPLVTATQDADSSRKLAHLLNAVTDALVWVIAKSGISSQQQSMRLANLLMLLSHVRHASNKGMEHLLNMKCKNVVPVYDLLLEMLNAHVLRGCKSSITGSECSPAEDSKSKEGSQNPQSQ
# Protocol: . The receptors and ligands were incubated for 18–24 h at 0 °C and then the receptor–ligand complexes separated using hydroxyapatite (BioRad, Hercules, CA, USA). […]
# [4] = tested on: C2C12 skeletal muscle myoblasts; test: MTT cell viability assay, C2C12; assay type: cell-based, mouse; conditions: 1 h exposure, up to 50 μM
# Protocol: For cell viability experiments using the MTT assay, mouse C2C12 skeletal muscle myoblasts (ATCC; Manassas, VA, USA) and the human hepatocyte cell line, HepG2 (ATCC; Manassas, VA, USA), were plated in 96-well plates at a density of 4,000 to 10,000 cells per well in 200 μL of DMEM medium supplemented with 10% FBS, 1% glutamine, 1 mM of sodium pyruvate, 100 units/mL penicillin, and 100 μg/mL streptomycin. After incubating 48 h, the medium was removed and the cells were treated with fresh solutions of various concentrations of XN, DXN or TXN in phenol red-free DMEM plus supplements. The final concentrations of XN, DXN, TXN were 1, 2, 5, 8, 10, 25, or 50 μM, in quadruplicate wells. The plates were then incubated for 1 h (for C2C12) or 24 h for HepG2. After removing the medium, the cells were incubated for 2 h with a 0.5 mg/mL solution of MTT in phenol red-free culture medium. After removing the medium and adding a solution of acidified isopropanol to each well, the absorbance of each well was measured at 570 nm by using a spectrometer (SpectraMax 190, Molecular Devices, Sunnyvale, CA, USA). Cell viability of compound-treated cells was calculated as % absorbance of vehicle-treated control cells (Supplementary Fig. S1a and S1b).
RBA ERα (relative binding affinity) [1],RBA ERβ (relative binding affinity) [3],Structure (SMILES),ECAR after addition of compound [2],C2C12 cell viability (MTT) [4],Increase of OCR in the presence of oligomycin (uncoupled respiration) [2] [%]
0.0029 ± 0.0007,0.009 ± 0.002,"COc1cc(O)c(CC=C(C)C)c(O)c1C(=O)CCc1ccc(O)cc1 [DXN, α,β-Dihydroxanthohumol]",significant decrease,did not significantly affect cell viability,28.7 ± 6.9
0.0033 ± 0.001,0.009 ± 0.002,"COc1cc(O)c(CCC(C)C)c(O)c1C(=O)CCc1ccc(O)cc1 [TXN, tetrahydroxanthohumol]",significant decrease,did not significantly affect cell viability,56.8 ± 6.9

Structure (SMILES),RBA ERα (relative binding affinity) [1],RBA ERβ (relative binding affinity) [3],ECAR after addition of compound [2],C2C12 cell viability (MTT) [4],Increase of OCR in the presence of oligomycin (uncoupled respiration) [2] [%]
"COc1cc(O)c(CC=C(C)C)c(O)c1C(=O)/C=C/c1ccc(O)cc1 [XN, 3′-[3,3-dimethylallyl]-2′,4′,4-trihydroxy-6′-methoxychalcone]",0.0021 ± 0.0003,0.003 ± 0.001,significant decrease,did not significantly affect cell viability,
